Reference: patent publication US9522908B2, “Ezrin inhibitors and methods of making and using” (Georgetown University, priority 2010, dated 2016)

How the values were obtained:
[1] = target: T1, ezrin T567 phosphorylation by PKC,τ (Mus musculus, UniProt P26040); assay: In vitro kinase assay: recombinant ezrin T567 phosphorylation by PKC,τ; type: biochemical; details: phosphospecific antibody immunoblot densitometry
T1 construct: Recombinant full length ezrin was prepared to a concentration of 100 μg/ml; host or cells: E. coli M15pREP4 (ezrin)
Protocol: (§1) FIG. 2 illustrates NSC305787 and NSC668394 inhibit ezrin T567 phosphorylation. (A) K7M2 metastatic OS cell line was treated with NSC305787 (10 μM) and NSC668394 (10 μM) for 6 hours. […] The effect of NSC305787 and NSC668394 on recombinant ezrin phosphorylation by recombinant PKC, was tested in an in vitro kinase assay. Phoshorylation of ezrin was detected by a phosphospecific antibody following PAGE and immunoblotting. Experiments were repeated three times and densitometric analysis of bands was used for calculation of % inhibition (graphs). Error bars represents s.d. from three independent experiments. Kinase activities of PKC,τ, PKC,α and PKC,γ were also evaluated with a nonspecific substrate in the presence of NSC305787 and NSC668394 by a radioactive in vitro kinase assay. Data analysis was done by using a sigmoidal dose-response equation where log EC50 for each curve with the ezrin substrate and the non-specific substrate were compared to each other (P=0.0118 for NSC305787 and P=0.0084 for NSC668394).
(§2) 500 ng of recombinant ezrin protein in kinase assay mix (200 μM ATP) was incubated with the compounds at 1-100 μM concentrations for 15 minutes on ice, then 50 ng PKC,τ (Millipore, Billerica, Mass.) was added. Reaction was performed at 30° C. for 30 min and stopped by adding 2× sample buffer. […]

PKC,τ, PKC,α and PKC,γ = assay: Radioactive in vitro kinase assay of PKC isoforms with nonspecific substrate; type: biochemical
Protocol: as §1, §2

ezrin in K7M2 OS cells = target: T2, ezrin in K7M2 OS cells (Mus musculus, UniProt P26040); assay: Endogenous ezrin T567 phosphorylation and actin binding in K7M2 cells (immunoprecipitation/immunoblot); type: cell-based; details: 10 μM
T2 construct: endogenous in cells; host or cells: K7M2 osteosarcoma cells
Protocol: (§3) K7M2 cells that were treated with embodied compounds and resolved protein lysates were immunoblotted for co-precipitated phosphorylated ezrin (TOP), or actin (BOTTOM). 4.0×10^6 K7M2 cells were plated in 15 cm dishes. After 24 h, the plates are at least 70% confluent. Media was removed and 10 μM of compound in SF DMEM was added. After the ezrin protein was incubated for 5 h with the indicated compound, the plates were lysed with PLB containing Calyculin A. 2 μL of Ezrin Ab and 10 μM of the compound (prepared in PLB) were added to the lysate and allowed to incubate overnight (14 h), followed by tumbling with Agarose IgG beads. The mixture was run on 10% acrylamide gel and transferred overnight.
as §3, with “removed and either 7 μM or 10 μM” for “removed and 10 μM”
For analysis of actin binding to FL and mutant ezrin, K12 cell lysate was incubated with recombinant ezrin protein, then subjected to immunoprecipitation with ezrin antibody (Sigma, St. Louis, Mo.) and immunoblotted with actin antibody (Santa Cruz, Santa Cruz, Calif.). For analysis of inhibition of small molecules on ezrin phosphorylation and actin binding, K7M2 cell lysates were treated with compounds at 10 μM concentration for 6 hours, followed by immunoprecipitation with the ezrin antibody and immunoblotted with phospho-ezrin (Cell Signaling, Danvers, Mass.), actin and ezrin antibodies.

[2] = tested on: K7M2, K12 and HUVEC cells; assay: Toxicity to cells at invasion assay concentrations; type: cell-based; details: 1 μM and 10 μM; data not shown
Protocol: Chemotaxis experiments were performed in 96 well Boyden chamber as described previously (Chen, K., et al., Pediatr. Blood Cancer, 51, 349-355 (2008)). To measure effect of compounds on cellular toxicity, WST viability assay (Roche, Indianapolis, Ind.) was performed in parallel to chemotaxis experiments.

[3] = tested on: K7M2 metastatic OS tumor cells; assay: In vivo experimental lung metastasis model, K7M2 cells; parameters: species or system mice
Protocol: FIG. 6 illustrates NSC305787 and NSC668394 inhibit in vivo OS metastatic growth in lungs. (A) K7M2 metastatic OS tumor cells (1×10^6) were injected via tail vein. Vehicle (1% DMSO), NSC305787 (240 μg/kg) and NSC668394 (226 μg/kg) were injected 5 days a week intraperitoneally. Kaplan-Meier survival curves show percent survival for NSC305787 and NSC668394 treatment over time. Median survival of vehicle, NSC305787 and NSC668394 treated K7M2 cells were 28.5, 50, and 49 days after tumor cell injection. […] (B) Fluorescence pictures of whole lungs are given. […] (C) GFP expressing ezrin independent MNNG, human OS cells were injected to mice and treated with vehicle (1% DMSO), NSC305787 (240 μg/kg) and NSC668394 (226 μg/kg). Survival of each group is not different probably because MNNG is an ezrin independent cell line. Median survival of vehicle, NSC305787 and NSC668394 treated MNNG cells were 50.5, 49, and 48.5 days after tumor cell injection. (D) Fluorescent images of the lung tissues of this group are given.
GFP expressing K7M2 or MNNG tumor cells (1×10^6) were delivered by tail vein to nude mice. One day after injection, vehicle, NSC305787 (240 μg/kg/inj) and […] (226 μg/kg/inj) were injected 5 days a week intraperitoneally.

T2 sequence (P26040 whole entry): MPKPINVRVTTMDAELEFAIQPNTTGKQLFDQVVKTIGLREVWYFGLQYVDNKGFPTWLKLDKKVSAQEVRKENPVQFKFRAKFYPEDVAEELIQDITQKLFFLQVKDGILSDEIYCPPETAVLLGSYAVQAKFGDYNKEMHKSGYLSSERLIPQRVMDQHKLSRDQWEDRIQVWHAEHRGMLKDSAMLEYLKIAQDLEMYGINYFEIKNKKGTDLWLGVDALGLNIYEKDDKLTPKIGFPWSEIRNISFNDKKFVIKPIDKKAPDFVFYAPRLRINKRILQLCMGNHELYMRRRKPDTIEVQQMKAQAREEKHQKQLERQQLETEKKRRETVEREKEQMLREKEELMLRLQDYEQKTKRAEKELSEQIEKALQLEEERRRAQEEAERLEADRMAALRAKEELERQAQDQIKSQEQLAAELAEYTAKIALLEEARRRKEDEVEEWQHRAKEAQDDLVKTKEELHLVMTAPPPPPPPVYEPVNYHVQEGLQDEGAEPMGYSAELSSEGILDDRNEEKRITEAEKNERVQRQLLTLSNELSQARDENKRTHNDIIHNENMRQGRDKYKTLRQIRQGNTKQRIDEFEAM
T1 sequence (P26040 whole entry): as above

OC(c1cc(C23CC4CC(CC(C4)C2)C3)nc2c(Cl)cc(Cl)cc12)C1CCCCN1 (stereo not drawn) [NSC305787]
IC50 [1]: 5.5 µM | concentration to inhibit all three PKC isoforms (PKC,τ, PKC,α and PKC,γ; nonspecific substrate): ~50 µM | fold higher concentration to inhibit PKC isoforms than to inhibit ezrin phosphorylation (PKC,τ, PKC,α and PKC,γ; nonspecific substrate vs ezrin substrate): 10 fold | cellular ezrin protein levels (ezrin in K7M2 OS cells): without altering cellular ezrin protein levels | T567 phosphorylation of endogenous ezrin (ezrin in K7M2 OS cells; 6 hours): inhibited | actin binding of ezrin (ezrin in K7M2 OS cells; 6 hours): inhibited | toxicity to K7M2, K12 and HUVEC cells [2]: not toxic | number of GFP expressing metastatic foci in lung tissues ([3]; K7M2 cells): significant decrease | median survival after tumor cell injection ([3]; K7M2 cells by tail vein, i.p. 5 days a week, vehicle 28.5 days): 50 days
